# Data published in patent US20240254087A1, “SELECTIVE, PARTIAL, AND ARRESTIN-BIASED 5-HT2A AGONISTS WITH UTILITY IN VARIOUS DISORDERS” (Saint Joseph's University, priority 2021, published 2024).
# Where two headings read alike, the source gives them in different places.
# Legend:
# male C57BL/6J mice = experiment: Head-twitch response (HTR) in mice; format: in vivo, mouse; settings: for ED50: Mus musculus
# Protocol: Male C57BL/6J mice (6-8 weeks old) from Jackson Labs (Bar Harbor, ME, USA) were used for the behavioral experiments. The mice were housed on a reversed light-dark cycle (lights on at 1900 h, off at 0700 h) in an AAAC-approved vivarium at the University of California San Diego. Mice were housed up to four per cage in a climate-controlled room and with food and water provided ad libitum except during behavioral testing. Testing was performed between 1000 and 1800 h (during the dark phase of the light-dark cycle). The studies were conducted in accordance with National Institutes Health (NIH) guidelines and were approved by the University of California San Diego Institutional Animal Care and Use Committee.
# The mice were allowed to recover from the magnet implantation surgeries for at least 1 week prior to behavioral testing. HTR experiments were conducted in a well-lit room, and the mice were allowed to habituate to the room for at least 1 h prior to testing. Head twitches was assessed in a 12-cm diameter glass cylinder surrounded by a magnetometer coil. Coil voltage was low-pass filtered (2 kHz), amplified, and digitized (20-kHz sampling rate) using a Powerlab/8SP with LabChart v 7.3.2 (ADInstruments, Colorado Springs, CO, USA). […] HTR counts were analyzed using one-way ANOVAs. Dunnett's test was used for post hoc comparisons.
# 5-HT2A [1] = target: T1, 5-HT2A (Homo sapiens, UniProt P28223); experiment: cell-based; design: expressed in transfected cells; host or cells: HEK293T, transient; settings: for Emax: read-out: 5-HT2A Gq Emax (% 5-HT), BRET, mean ± SEM
# T1 sequence (P28223 whole entry): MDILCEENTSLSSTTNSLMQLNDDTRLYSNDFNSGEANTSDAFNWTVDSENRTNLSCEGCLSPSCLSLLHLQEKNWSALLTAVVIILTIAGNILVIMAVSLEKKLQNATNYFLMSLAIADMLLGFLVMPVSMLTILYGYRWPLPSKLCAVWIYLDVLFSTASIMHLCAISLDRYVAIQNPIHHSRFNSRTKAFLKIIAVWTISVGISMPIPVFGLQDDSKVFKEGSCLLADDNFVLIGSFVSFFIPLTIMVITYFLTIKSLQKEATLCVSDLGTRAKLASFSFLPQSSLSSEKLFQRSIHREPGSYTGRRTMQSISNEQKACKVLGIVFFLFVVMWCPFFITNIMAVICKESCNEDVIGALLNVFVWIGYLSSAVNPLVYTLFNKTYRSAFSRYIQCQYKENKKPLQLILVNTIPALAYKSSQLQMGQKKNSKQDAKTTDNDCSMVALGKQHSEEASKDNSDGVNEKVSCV
# Protocol: (§1) After at least 18-24 hours, transfected cells were plated in poly-lysine coated 96-well white clear bottom cell culture plates in DMEM containing 1% dialyzed FBS at a density of 25-40,000 cells in 200 μL per well and incubated overnight. After approximately 20-24 hours, media was decanted and cells were washed with 60 μL of drug buffer (1×HBSS, 20 mM HEPES, pH 7.4), followed by 60 μL of drug buffer and pre-incubated in a humidified atmosphere at 37° C. before receiving drug stimulation. Drug stimulation was induced by adding 30 μL of a solution of drug (3X) diluted in McCorvy buffer (1×HBSS, 20 mM HEPES, pH 7.4, supplemented with 0.3% BSA fatty acid free, 0.03% ascorbic acid) and plates were incubated at the indicated time and temperature. Fifteen minutes before reading, 10 μL of the RLuc substrate, either coelenterazine h for β-Arrestin recruitment BRET^1 or coelenterazine 400a for Gq dissociation BRET^2 (Prolume/Nanolight, 5 μM final concentration) was addedper well. […] The BRET ratios of fluorescence/luminescence were calculated per well and were plotted as a function of drug concentration using Graphpad Prism 8 (Graphpad Software Inc., San Diego, CA).
# 5-HT2A [2] = target: T1, 5-HT2A; experiment: cell-based; design: expressed in transfected cells; host or cells: HEK293T, transient; settings: for Emax: read-out: 5-HT2A β-arrestin Emax (% 5-HT), BRET, mean ± SEM
# Protocol: as §1
# 5-HT2B = 5-HT2B (Homo sapiens, UniProt P41595); experiment: BRET Gq dissociation, 5-HT2B; format: cell-based; design: expressed in transfected cells; host or cells: HEK293T, transient
# Sequence of 5-HT2B (P41595 whole entry): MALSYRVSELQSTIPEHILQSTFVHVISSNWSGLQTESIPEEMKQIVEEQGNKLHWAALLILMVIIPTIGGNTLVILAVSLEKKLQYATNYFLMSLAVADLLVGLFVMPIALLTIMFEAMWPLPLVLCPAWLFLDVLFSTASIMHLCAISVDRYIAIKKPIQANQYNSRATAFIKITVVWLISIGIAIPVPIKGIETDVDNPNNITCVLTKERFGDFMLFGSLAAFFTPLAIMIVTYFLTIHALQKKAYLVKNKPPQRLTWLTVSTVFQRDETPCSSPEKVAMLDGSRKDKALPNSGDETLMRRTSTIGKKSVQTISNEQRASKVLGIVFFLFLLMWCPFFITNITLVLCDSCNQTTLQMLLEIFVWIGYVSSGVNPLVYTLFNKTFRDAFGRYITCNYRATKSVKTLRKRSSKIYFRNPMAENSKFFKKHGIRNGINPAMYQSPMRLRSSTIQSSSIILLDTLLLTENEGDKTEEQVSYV
# Protocol: After at least 18-24 hours, transfected cells were plated in poly-lysine coated 96-well white clear bottom cell culture plates in DMEM containing 1% dialyzed FBS at a density of 25-40,000 cells in 200 μL per well and incubated overnight. After approximately 20-24 hours, media was decanted and cells were washed with 60 μL of drug buffer (1×HBSS, 20 mM HEPES, pH 7.4), followed by 60 μL of drug buffer and pre-incubated in a humidified atmosphere at 37° C. before receiving drug stimulation. Drug stimulation was induced by adding 30 μL of a solution of drug (3X) diluted in McCorvy buffer (1×HBSS, 20 mM HEPES, pH 7.4, supplemented with 0.3% BSA fatty acid free, 0.03% ascorbic acid) and plates were incubated at the indicated time and temperature. Fifteen minutes before reading, 10 μL of the RLuc substrate, either coelenterazine h for β-Arrestin recruitment BRET^1 or coelenterazine 400a for Gq dissociation BRET^2 (Prolume/Nanolight, 5 μM final concentration) was addedper well. Plates were read for luminescence at 485 nm and fluorescent eYFP emission at 530 nm for BRET^1 and at 400 nm and fluorescent GFP2 emission at 510 nm for BRET2 at 1 second per well using a Mithras LB940 (Berthold). The BRET ratios of fluorescence/luminescence were calculated per well and were plotted as a function of drug concentration using Graphpad Prism 8 (Graphpad Software Inc., San Diego, CA).
# 5-HT2C = target: T2, 5-HT2C (Homo sapiens, UniProt P28335); experiment: BRET Gq dissociation, 5-HT2C; format: cell-based; design: expressed in transfected cells; host or cells: HEK293T, transient; settings: for Emax: read-out: 5-HT2C Gq Dissociation (BRET) EMAX ± SEM (%5-HT); for EC50: read-out: 5-HT2C Gq Dissociation (BRET) pEC50 ± SEM (converted)
# T2 sequence (P28335 33-458): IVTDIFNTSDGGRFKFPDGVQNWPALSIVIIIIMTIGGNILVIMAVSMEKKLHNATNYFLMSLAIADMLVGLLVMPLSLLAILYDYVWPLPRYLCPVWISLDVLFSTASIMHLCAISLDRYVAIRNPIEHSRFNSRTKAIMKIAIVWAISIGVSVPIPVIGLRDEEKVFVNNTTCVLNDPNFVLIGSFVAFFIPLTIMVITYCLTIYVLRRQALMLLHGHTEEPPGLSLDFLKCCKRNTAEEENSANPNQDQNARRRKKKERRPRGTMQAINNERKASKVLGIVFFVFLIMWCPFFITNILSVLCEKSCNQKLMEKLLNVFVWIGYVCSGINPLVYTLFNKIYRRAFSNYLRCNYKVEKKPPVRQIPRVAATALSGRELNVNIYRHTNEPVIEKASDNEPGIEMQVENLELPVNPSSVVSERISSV
# Protocol: as §1
# [3] = read-out: HTR ED50 mg/kg (95% CI), SC, except DOI and 25D-NBOMe IP
# [4] = BRET, mean ± SEM, read-out: 5-HT2A Gq dissociation pEC50 (converted)
# [5] = BRET, mean ± SEM, read-out: 5-HT2A β-arrestin recruitment pEC50 (converted)
SMILES,Max HTR response during a 30-min assessment (maximum counts ÷ baseline response) (male C57BL/6J mice),"ED50 (male C57BL/6J mice; read-out: HTR ED50 μmol/kg (95% CI), SC, except DOI and 25D-NBOMe IP)",ED50 (male C57BL/6J mice; [3]),"5-HT2A Gq Emax (% 5-HT) (5-HT2A [1]; BRET, mean ± SEM)",Emax (5-HT2A [1]),Emax (5-HT2A [2]),5-HT2B Gq Dissociation (BRET) EMAX ± SEM (%5-HT) (5-HT2B),5-HT2B Gq Dissociation (BRET) pEC50 ± SEM (5-HT2B),Emax (5-HT2C),EC50 (5-HT2C),Induction of the HTR in mice (in words) (male C57BL/6J mice),EC50 (5-HT2A [1]; [4]),EC50 (5-HT2A [2]; [5]),Emax (5-HT2B; read-out: 5-HT2B Gq Dissociation (BRET) EMAX ± SEM (%5-HT)),EC50 (5-HT2B; read-out: 5-HT2B Gq Dissociation (BRET) pEC50 ± SEM (converted)),EC50 (5-HT2A [1]),"5-HT2A Gq dissociation pEC50 (5-HT2A [1]; BRET, mean ± SEM)",EC50 (5-HT2A [2])
COc1cc(CCNCc2ccccc2OC)c(OC)cc1C [25D-NBOMe (26)],15.6-fold increase,0.64 µmol/kg,0.23 mg/kg,93.0 ± 1.3 % 5-HT,≥ 76%,126 ± 3.4%,,,,,,,,,,,,
COc1cc(OC)c(OC)cc1CCNCc1cccc2ccccc12 [(38)],1.0-fold increase,,> 30 mg/kg,,24.3 ± 1.2%,74.9 ± 1.9%,No activity,No activity,64.4 ± 2%,12.6 nM,failed to induce a HTR,5.5 nM,1.62 nM,,,,,
"COc1cc2c(cc1CCNCc1cccc3ccccc13)OCO2 [(39), [2-(6-methoxy-2H-1,3-benzodioxol-5-yl)ethyl][(naphthalen-1-yl)methyl]amine]",1.4-fold increase,,> 30 mg/kg,,26.4 ± 2%,80.1 ± 2.5%,No activity,No activity,90.5 ± 2.3%,17 nM,failed to induce a HTR,15.5 nM,5.89 nM,,,,,
COc1cc(OC)c(OC)cc1CCNCc1cccc(Br)c1O [(48)],,,,,53.6 ± 1.7%,85 ± 4.8%,No activity,No activity,69.2 ± 6.1%,174 nM,,20.4 nM,8.13 nM,,,,,
COc1cc(OC)c(OC)cc1CCNCc1cccc(I)c1O [(49)],,,,,52.8 ± 1.5%,80.5 ± 5.5%,No activity,No activity,93.5 ± 3.1%,26.9 nM,,14.5 nM,11.7 nM,,,,,
COc1cc(OC)c(OC)cc1CCNCc1cccc(C)c1C [(50)],,,,,23.6 ± 1%,73.9 ± 5.4%,No activity,No activity,30.4 ± 2.7%,1.55 nM,,3.47 nM,5.75 nM,,,,,
COc1cc(OC)c(OC)cc1CCNCc1cccc2c1CCC2 [(51)],,,,,41.2 ± 1.9%,72.9 ± 4.2%,No activity,No activity,52.5 ± 5.2%,93.3 nM,,1.7 nM,3.31 nM,,,,,
COc1cc(OC)c(OC)cc1CCNCc1cccc2c1CCCC2 [(52)],,,,,43.7 ± 1.1%,65 ± 4.9%,No activity,No activity,43.6 ± 3.8%,34.7 nM,,7.59 nM,1.78 nM,,,,,
COc1cc(OC)c(OC)cc1CCNCc1cccc2cccnc12 [(54)],,,,,54.3 ± 1.5%,100 ± 3.5%,No activity,No activity,90.5 ± 3.1%,14.8 nM,,11.2 nM,8.51 nM,,,,,
COc1cc(OC)c(OC)cc1CCNCc1cccc2cnccc12 [(56)],,,,,64.1 ± 1.5%,75.8 ± 8.3%,No activity,No activity,80.9 ± 3.4%,126 nM,,26.3 nM,17.4 nM,,,,,
COc1cc(OC)c(OC)cc1CCNCc1cccc2ncccc12 [(57)],,,,,34.2 ± 4%,92 ± 8.9%,No activity,No activity,77.6 ± 3.2%,200 nM,,,,,,,,
COc1cc(OC)c(OC)cc1CCNCc1ccccc1-c1ccco1 [(58)],,,,,51.9 ± 2.2%,112 ± 6.2%,,,94 ± 4%,14.1 nM,,50.1 nM,56.2 nM,37.6 ± 2%,3.09 nM,,,
COc1cc(OC)c(OC)cc1CCNCc1ccccc1Oc1ccccc1 [(60)],,,,,63.3 ± 3.5%,117 ± 14.6%,No activity,No activity,113 ± 11.6%,1700 nM,,,,,,,,
COc1cc(OC)c(OC)cc1CCNCc1cccc(-c2ccccc2)c1 [(62)],,,,,23.7 ± 2.1%,112 ± 6.2%,No activity,No activity,72.8 ± 5.2%,219 nM,,,56.2 nM,,,182 nM,,
COc1cc(OC)c(OC)cc1CCNCc1cccc(-c2ccccc2)c1O [(63)],,,,,< 10%,117 ± 14.6%,No activity,No activity,79.2 ± 2.6%,51.3 nM,,,,,,,No activity,102 nM
COc1cc(OC)c(OC)cc1CCNCc1cccc(F)c1F [(65)],,,,,76.5 ± 2.3%,101 ± 2.7%,No activity,No activity,83.3 ± 6.3%,200 nM,,64.6 nM,170 nM,,,,,
